Data set [1] deals with KeratinoSens reporter keratinocytes (luciferase gene under control of the ARE element of the AKR1C2 gene). Put plainly: KeratinoSens ARE-Nrf2 luciferase assay. The data set is classed as cell-based. To be noted: for ECKS1.5: extrapolated concentration for 1.5 fold luciferase induction; for ECKS4.5: extrapolated concentration for 4.5 fold luciferase induction; for Classification: KeratinoSens, luciferase induction greater than 1.5-fold at non-cytotoxic concentrations. The method, then: (§1) KeratinoSens Assay for Sensitization and Cellular Viability. The KeratinoSens™ assay was performed according to the OECD guidelines ([OECD, 2018]). Compounds were incubated at 12 concentrations (0.98–2000 μM) for 48 h with cinnamic aldehyde as the positive control. The experiment was repeated on three independent occasions.
In Vitro Skin Sensitization: KeratinoSens ARE-Nrf2 Luciferase Assay. […] ECKS1.5 represents the extrapolated concentration for which induction of luciferase activity is above the 1.5 fold threshold (i.e., 50% enhanced luciferase activity). The ECKS4.5 values were used for comparison of sensitizing potency.

The nature of data set [2]: Cellular viability (MTT) in the KeratinoSens assay. The data set is classed as cell-based. Conditions: human, KeratinoSens reporter keratinocytes, 50% reduction in cellular viability, read-out: Cytotoxicity IC50. The method, then: as §1
In a further data set the test system is model peptide AcPHCKRM. Kind of data set: Reactivity toward the model peptide AcPHCKRM (peptide depletion, HPLC/ESI-MS). To be noted: 10 mM compound, 1 mM AcPHCKRM. The method, then: All solvents were degassed with argon prior to use. […] Monoepoxides PGE, 1 or 2 were prepared in DMSO (40 mM, 100 μL) together with potassium phosphate buffer (100 mM, pH 7.4) (200 μL) and separately added to a vial purged with argon containing AcPHCKRM dissolved in DMSO (4 mM, 100 μL).
Based on our previous studies regarding the chemical reactivity of the epoxide-containing compounds ([O’Boyle et al., 2014]; [Ponting et al., 2019]), the depletion of the nucleophilic hexapeptide Ac-Pro-His-Cys-Lys-Arg-Met-OH (AcPHCKRM) was analyzed in reaction mixtures at pH 7.4 with a 10-fold excess of the respective test chemical in a mixture of phosphate buffer and DMSO.

Details of data set [3]: method as in O’Boyle et al., 2014. Conditions: ref O’Boyle et al., 2014, cited from earlier work.
In data set [4] the test system is KeratinoSens reporter keratinocytes. To be noted: read-out: Cytotoxicity IC50; 50% reduction in cellular viability, MTT assay; ref Delaine et al., 2011; cited from earlier work. A general note: Tetrazolium assays rely on reduction of a dye to a coloured formazan, in cell work by metabolically active cells.
Data set [5] concerns KeratinoSens reporter keratinocytes (luciferase gene under control of the ARE element of the AKR1C2 gene). Conditions: cited from earlier work.
The test system of data set [6] is CBA/Ca mice. To be noted: cited from earlier work.
Another data set relates to mice and guinea pigs. Conditions: cited from earlier work.
Data set [7] concerns CBA/Ca mice. Put plainly: Murine local lymph node assay (LLNA). Type of data set: in vivo. The method, then:
(§2) Experimental Animals. Female CBA/Ca mice, 7 or 9 weeks of age, were purchased from NOVA SCB Charles River, Germany. The mice were housed in HEPA filtered airflow cages and kept on standard laboratory diet and water ad lib. The regional ethics committee, Jordbruksverket, approved the protocol and the procedure was performed in accordance with the guidelines. Sensitization Potential of PinoDGE in Mice. […] Computational Techniques. Reactivity of cysteine residues toward the compounds under investigation was modeled as reactivity toward methanethiolate. Reactivity calculations were carried out at the B3LYP-D3/6–31+G**([Stephens et al., 1994]; [Becke, 1988]; [Slater, 1974]; [Goerigk and Grimme, 2011]; [Grimme et al., 2010]; [Ditchfield et al., 1971]) level of theory in Jaguar (Schrodinger LLC, N. Y. Jaguar, version 7.6, 2009). Further experimental details are contained in the supplementary information. Cross-Linking Procedure and Thermogravimetric Analysis (TGA).
(§3) In Vivo Skin Sensitizing Potency Studies. The LLNA was used to assess the skin sensitizing potency of PinoDGE. […] The standard vehicle, acetone: olive oil (AOO) (4:1), was initially used as the vehicle. […] Pure acetone is described as a suitable vehicle in the LLNA ([Jowsey et al., 2008]); however, a closer match to AOO was desired, leading to the choice of AOO 16:1.

Data set [8] can be described thus: Solubility in the LLNA test vehicle. Type of data set: physicochemical.
From the text: as §3

A short description of data set [9]: Cross-linking with TETA and thermogravimetric analysis (TGA). The data set is classed as physicochemical. The method, then:
as §2
Cross-Linking of PinoDGE with TETA. […] Initial decomposition temperature (IDT) indicated the apparent thermal stability of the epoxy resin.

Setting [10] is: cross-linked with TETA, TGA under nitrogen.
The mark [11] stands for this setting: cured epoxy resin, Horwitz-Metzger equation.
Where [12] appears, read: LLNA, ref Niklasson et al., 2009.
[13] abbreviates: after 45 min, pH 7.4 phosphate buffer/DMSO.
Where [14] appears, read: AOO 16:1, 10% w/v (0.21 M), precipitating from solution on the ears of the mice.

The structures appear in SMILES notation. Where two headings read alike, the source gives them in different places.

For the compound `COc1ccccc1OCC1CO1` (centres unmarked) [Compound 1, 2-((2-methoxyphenoxy)methyl)oxirane], in [1], the ECKS1.5 is 23 µM and the ECKS4.5 was 64 µM.
In general, IC50 refers to the concentration at which inhibition is half-maximal. For `O=[N+]([O-])c1ccccc1OCC1CO1` (centres unmarked) [Compound 2, 2-((2-nitrophenoxy)methyl)oxirane], in data set [1], the Classification entry is “Sensitizer”, the ECKS1.5 was 12 µM and the ECKS4.5 was 37 µM. Besides, the IC50 at 48 h in [2] worked out at 88 µM. In the data set on model peptide AcPHCKRM (after 40 min, pH 7.4), this compound gave a peptide remaining of 28%. Further, in the data set on model peptide AcPHCKRM (at 200 min, pH 7.4), the peptide remaining is on record as 24%.
Turning to `CC(C)(c1ccc(OCC2CO2)cc1)c1ccc(OCC2CO2)cc1` (centres unmarked) [DGEBA, diglycidyl ether of bisphenol A], in [3] (setting [10]), the “IDT (initial decomposition temperature)” value was 358 ˚C, the “Rmax (maximum weight loss rate)” value is listed as −1.58 %/˚C and the “Tmax (temperature at maximum rate of weight loss)” value is 382 ˚C. The “Ea (activation energy for decomposition)” value in [3] (setting [11]) is 22.9 kcal/mol. For the same compound, the IC50 in data set [4] is 22 µM. Moreover, in data set [5], the ECKS1.5 is 5.2 µM and the ECKS4.5 is 10 µM. For the same compound, the EC3 with CBA/Ca mice [6] (setting [12]) is on record as 0.036 M. Further, the Classification as sensitizer result in the data set on mice and guinea pigs (mice and guinea pigs, ref Thorgeirsson et al., 1978, Delaine et al., 2011, Pontén et al., 2002, Basketter et al., 2005) is reported as “strong sensitizers”. In the data set with model peptide AcPHCKRM (setting [13]), this compound gave a peptide remaining of 37%. For the same compound, the peptide remaining in the data set with model peptide AcPHCKRM (after 85 min, pH 7.4) is 18%. The peptide remaining in the data set on model peptide AcPHCKRM (after 205 min, pH 7.4) worked out at 7%.
`c1cc(OCC2CO2)ccc1Cc1ccc(OCC2CO2)cc1` (centres unmarked) [DGEBF, diglycidyl ether of bisphenol F]: the Classification as sensitizer result in the data set with mice and guinea pigs (in vivo) is “strong sensitizers”.
Consider `CCCCCCC(C=O)=Cc1ccccc1` [HCA, hexylcinnamic aldehyde, reference compound], for which the EC3 in the data set on CBA/Ca mice [7] (control experiment in AOO 16:1) was 11.8 % w/v; in the data set with CBA/Ca mice [6] (reported values in 4:1 AOO, ref OECD, 2010) it was 4.4–14.7 % w/v.
For `c1ccc(OCC2CO2)cc1` (centres unmarked) [PGE, phenylglycidyl ether], the IC50 in data set [4] is 182 µM. In addition, the “Imax (fold induction)” value in data set [5] (average maximal induction of gene activity, ref Delaine et al., 2011) is reported as 56 fold induction. Besides, the ECKS1.5 in data set [5] (extrapolated concentration for 1.5 fold luciferase induction, ref Delaine et al., 2011) is 16 µM. The ECKS4.5 in data set [5] (extrapolated concentration for 4.5 fold luciferase induction, ref Delaine et al., 2011) was 63 µM. Also, the EC3 in the data set on CBA/Ca mice [6] (setting [12]) is recorded as 0.031 M. Also, the LLNA classification result in the data set on CBA/Ca mice [6] (ref Niklasson et al., 2009) is “strong sensitizer”. The peptide remaining in the data set with model peptide AcPHCKRM (after 40 min, pH 7.4) worked out at 35%; in the data set with model peptide AcPHCKRM (at 200 min, pH 7.4) it was 26%.
In general, solubility refers to the dissolved amount per volume that the medium holds. Take `COc1cc([C@H]2OC[C@H]3[C@@H]2CO[C@@H]3c2ccc(OCC3CO3)c(OC)c2)ccc1OCC1CO1` (some centres unmarked) [PinoDGE, pinoresinol diglycidyl ether]: the Classification entry in data set [1] is “skin sensitizer”. The ECKS1.5 in data set [1] is 2.5 µM. The ECKS4.5 in data set [1] is 7.4 µM. The “(3H)thymidine incorporation” value in the data set on CBA/Ca mice [7] (AOO 4:1, 0.10% w/v (0.0021 M)) came to 280 dpm/lymph node; with CBA/Ca mice [7] (AOO 4:1, 1.0% w/v (0.021 M)), 368 dpm/lymph node; in the data set with CBA/Ca mice [7] (AOO 4:1, 2.5% w/v (0.053 M)), 166 dpm/lymph node; with CBA/Ca mice [7] (AOO 4:1, 3.0% w/v (0.064 M)), 325 dpm/lymph node; in the data set with CBA/Ca mice [7] (AOO 4:1, 5.0% w/v (0.11 M)) it was 327 dpm/lymph node; with CBA/Ca mice [7] (AOO 16:1, 2.0% w/v (0.043 M)), 130 dpm/lymph node. The “(3H)thymidine incorporation” value was 180 dpm/lymph node with CBA/Ca mice [7] (AOO 16:1, 4.0% w/v (0.085 M)); 195 dpm/lymph node in the data set with CBA/Ca mice [7] (AOO 16:1, 6.0% w/v ([…])); 480 dpm/lymph node in the data set with CBA/Ca mice [7] (AOO 16:1, 8.0% w/v (0.17 M)); 180 dpm/lymph node in the data set with CBA/Ca mice [7] (setting [14]). For the same compound, the SI with CBA/Ca mice [7] (AOO 4:1, 0.10% w/v (0.0021 M)) amounted to 0.94; in the data set with CBA/Ca mice [7] (AOO 4:1, 1.0% w/v (0.021 M)), 1.23; in the data set on CBA/Ca mice [7] (AOO 4:1, 2.5% w/v (0.053 M)) it was 0.56; with CBA/Ca mice [7] (AOO 4:1, 3.0% w/v (0.064 M)), 1.09; with CBA/Ca mice [7] (AOO 4:1, 5.0% w/v (0.11 M)), 1.10; in the data set on CBA/Ca mice [7] (AOO 16:1, 2.0% w/v (0.043 M)), 0.52. The SI with CBA/Ca mice [7] (AOO 16:1, 4.0% w/v (0.085 M)) is 0.73; in the data set on CBA/Ca mice [7] (AOO 16:1, 6.0% w/v ([…])), 0.79; in the data set with CBA/Ca mice [7] (AOO 16:1, 8.0% w/v (0.17 M)), 1.94; with CBA/Ca mice [7] (setting [14]), 0.73; with CBA/Ca mice [7] (any of the concentrations tested, both vehicles), not above 3. Moreover, the EC3 in the data set with CBA/Ca mice [7] (LLNA, AOO 4:1 and AOO 16:1) was more than 0.17 M. The LLNA classification result in the data set with CBA/Ca mice [7] (concentrations up to 0.17 M) is given as “not classified as a skin sensitizer”. The Solubility in vehicle result is listed as “up to 8 % w/v” in data set [8] (AOO 16:1, precipitated from a 10% w/v solution) and not above 5 % w/v in data set [8] (AOO (4:1)). For the same compound, the solubility in data set [8] (acetone:olive oil (AOO) 4:1, organic solvent or mixture, AOO (4:1)) is not above 110 mM; in data set [8] (acetone:olive oil (AOO) 16:1, organic solvent or mixture, AOO 16:1, precipitated from a 10% w/v solution), not above 170 mM. In [2], the IC50 at 48 h was 24 µM. Besides, the “maximum rate of degradation (Rmax) relative to DGEBA” value in data set [9] (Rmax as percentage of that of DGEBA) is on record as 58%. The “IDT (initial decomposition temperature)” value in [9] (setting [10]) is 338 ˚C. Besides, in [9] (setting [10]), the “Rmax (maximum weight loss rate)” value was −0.92 %/˚C. In addition, in data set [9] (setting [10]), the “Tmax (temperature at maximum rate of weight loss)” value is given as 370 ˚C. The “Ea (activation energy for decomposition)” value in data set [9] (setting [11]) was 30.6 kcal/mol. Further, the “IDT lower than that of DGEBA” value in data set [9] (difference to DGEBA polymer) is 20 °C. In addition, the “Tmax lower than that of DGEBA” value in [9] (difference to DGEBA polymer) stood at 12 °C. The peptide remaining in the data set with model peptide AcPHCKRM (setting [13]) is 8%; with model peptide AcPHCKRM (after 85 min, pH 7.4), 5%.

These data come from publication PMC9082971, “Nature-derived epoxy resins: Synthesis, allergenicity, and thermosetting properties of pinoresinol diglycidyl ether” (Toxicology and Industrial Health, 2022).
